We go through 13 molecules from ChEMBL document CHEMBL1201862, “PubChem BioAssay data set” (2004).

Among the test systems are COLO 205; DMS-114; DMS-273; EKVX; HCC 2998; LOX IMVI; M19-MEL; MCF7; NCI/ADR-RES; SNB-78; SW-620; UACC-257; XF498; SR; 786-0; BT-549; Hs-578T; MDA-MB-435; T47D; MDA-N.
What all share (assay): NCI anticancer screen, dose series, 48 h

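Growth conditions: 96-well plates. Treatment: test compound, 48 hours, 5 concentrations. Analysis: linear interpolation between bracketing concentrations; unreached endpoints set to highest concentration. GI50 = concentration required for 50% inhibition of growth.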 Activity calls are given as the source filed them. Rule as the data show it: active = GI50 up to about 1.1 µM and inactive = higher.

Take `O=C1ON(Cc2ccccc2)C(c2ccccc2)N1c1ccccc1` (centres undefined): the GI50 in the test on COLO 205, in the test on DMS-114, with DMS-273, in the test on EKVX, in the test on HCC 2998 and in the test with LOX IMVI was > 100 µM (inactive) throughout. Also, the GI50 in the test with M19-MEL, in the test on MCF7, in the test with NCI/ADR-RES, with SNB-78, with SW-620 and with UACC-257 was > 100 µM (inactive) in each case. The GI50 with XF498 is > 100 µM (inactive).

On to `O=NN1C(c2ccccc2)CCCC1c1ccccc1` (centres undefined), for which the GI50 in the test on COLO 205 was 50.8 µM (inactive); in the test with DMS-114 it was 28.6 µM (inactive); in the test with DMS-273, 39.8 µM (inactive); in the test on EKVX, > 62.2 µM (inactive); in the test with HCC 2998 it was 80.4 µM (inactive); with LOX IMVI, 74.8 µM (inactive). The GI50 in the test with M19-MEL is 85.9 µM (inactive); in the test on MCF7, 37.9 µM (inactive); with NCI/ADR-RES, 51.1 µM (inactive); in the test with SNB-78, 46.2 µM (inactive); with SW-620, > 92.7 µM (inactive); with UACC-257, 72.1 µM (inactive). Besides, the GI50 in the test on XF498 was 31.7 µM (inactive).

For the molecule `CC(OC(C)(C)C)[C@H](NC(=O)OCC(Cl)(Cl)Cl)C(=O)O` (some centres undefined), the GI50 with COLO 205, in the test on DMS-114, with DMS-273, with EKVX, in the test with HCC 2998 and in the test on M19-MEL was > 100 µM (inactive) each time. The GI50 in the test on SNB-78, in the test on SR, in the test with SW-620, in the test on UACC-257 and in the test with XF498 was > 100 µM (inactive) throughout.

On to `CCOC(=O)C(Cc1ccccc1)NC(=O)OC(C)(C)C` (centres undefined), for which the GI50 in the test with 786-0, with COLO 205, in the test with DMS-114, in the test with DMS-273, in the test on HCC 2998 and in the test on LOX IMVI was > 100 µM (inactive) throughout. Also, the GI50 in the test with M19-MEL, with SNB-78, in the test with SW-620, with UACC-257 and with XF498 was > 100 µM (inactive) in each case.

Turning to `Cc1ccc(NC(=O)CC(=O)n2nc(-c3ccccc3)c(/N=N/c3ccccc3Cl)c2-c2ccccc2)cc1`, the GI50 with 786-0 is 32.6 µM (inactive); with COLO 205, > 10 µM (inactive); with DMS-114, > 10 µM (inactive); in the test with DMS-273, 41.8 µM (inactive); with EKVX, 88.9 µM (inactive); with HCC 2998, > 10 µM (inactive). For the same molecule, the GI50 is 92.5 µM (inactive) in the test on LOX IMVI; > 10 µM (inactive) in the test with M19-MEL; > 10 µM (inactive) with SNB-78; > 100 µM (inactive) with SR; 92 µM (inactive) with SW-620; > 10 µM (inactive) with UACC-257. In addition, the GI50 in the test with XF498 was 49 µM (inactive).

Turning to `COC(=O)c1ccc(/N=N/N(C)COc2ccc([N+](=O)[O-])cc2)cc1`, the GI50 in the test on COLO 205 is > 57.3 µM (inactive); with DMS-114, > 100 µM (inactive); with DMS-273 it was > 100 µM (inactive); in the test on EKVX it was > 100 µM (inactive); in the test with HCC 2998, > 74.5 µM (inactive); in the test on LOX IMVI, > 86.9 µM (inactive). The GI50 with M19-MEL is > 100 µM (inactive); in the test with MCF7, > 81.5 µM (inactive); in the test with NCI/ADR-RES, > 100 µM (inactive); in the test on SNB-78, > 100 µM (inactive); in the test on SW-620 it was 64.7 µM (inactive); with UACC-257 it was > 100 µM (inactive). Also, the GI50 in the test on XF498 is > 100 µM (inactive).

With `CN1NC(c2ccccc2)=C(C#N)C(=O)CC1c1ccc(Br)cc1` (centres undefined), the GI50 in the test on HCC 2998 is 34.5 µM (inactive); with LOX IMVI, 35.4 µM (inactive); in the test on SNB-78, 48.8 µM (inactive); in the test on SR, 36.2 µM (inactive); with SW-620, 25.6 µM (inactive); in the test on UACC-257, 69.5 µM (inactive). For the same molecule, the GI50 in the test on XF498 is 28.6 µM (inactive).

Regarding `O=C1NC2=C(CCCC/C2=N\O)C12CCCCC2`, the GI50 in the test with DMS-114, in the test with EKVX, with HCC 2998, in the test with LOX IMVI, in the test with M19-MEL and in the test with SNB-78 was > 100 µM (inactive) each time. The GI50 in the test with SR is 80.9 µM (inactive); in the test on SW-620, > 100 µM (inactive); in the test on UACC-257, > 100 µM (inactive); in the test with XF498 it was > 100 µM (inactive).

Regarding `COc1cc(/C=C/C(=O)C(C)(C)C)cc(OC)c1OC`, the GI50 in the test with 786-0 was 53.7 µM (inactive); in the test with COLO 205 it was 40 µM (inactive); with DMS-114 it was 25.6 µM (inactive); in the test with DMS-273 it was 40.1 µM (inactive); with EKVX it was 45.7 µM (inactive); in the test on HCC 2998, 48.2 µM (inactive). For the same molecule, the GI50 in the test with LOX IMVI was 19.7 µM (inactive); in the test with M19-MEL it was 31.8 µM (inactive); with SR, 30.2 µM (inactive); in the test on SW-620 it was 32.7 µM (inactive); in the test on UACC-257, 28.1 µM (inactive); in the test on XF498, 82 µM (inactive).

For the molecule `CC(=O)O[C@]12CCCCCC1C1(O)C(O)CCCC[C@H]12` (some centres undefined), the GI50 in the test on 786-0, in the test on COLO 205, in the test with DMS-114, in the test on DMS-273, in the test on EKVX and with LOX IMVI was > 100 µM (inactive) each time. The GI50 in the test on M19-MEL, with SNB-78, with SR, in the test on SW-620, with UACC-257 and in the test on XF498 was > 100 µM (inactive) each time.

Consider `O=S(=O)(O)c1ccc(/N=N\c2ccc(/N=N/c3ccc(/C=C/c4ccc(/N=[N+](\[O-])c5ccc(/C=C/c6ccc(/N=N/c7ccc(/N=N/c8ccc(S(=O)(=O)O)cc8)c8ccccc78)cc6S(=O)(=O)O)c(S(=O)(=O)O)c5)cc4S(=O)(=O)O)c(S(=O)(=O)O)c3)c3ccccc23)cc1`, for which the GI50 in the test on COLO 205, in the test on DMS-114, with DMS-273, with EKVX, with HCC 2998 and in the test with LOX IMVI was > 100 µM (inactive) each time. The GI50 with M19-MEL, in the test on MCF7, with NCI/ADR-RES, with SNB-78, in the test with SW-620 and with UACC-257 was > 100 µM (inactive) throughout. In addition, the GI50 in the test with XF498 was > 66.8 µM (inactive).

On to `CC(=O)O[C@@]12CO[C@@H]1CC(O)[C@@]1(C)C(=O)[C@H](O)C3=C(C)C(O)C[C@@](O)(C(OC(=O)c4ccccc4)C12)C3(C)C` (some centres undefined), for which the GI50 in the test on 786-0 was 2.9 µM (inactive); with BT-549 it was 1.26 µM (inactive); in the test with COLO 205, 0.434 µM (active); with DMS-273 it was 0.472 µM (active); in the test on EKVX, 5.62 µM (inactive); in the test on HCC 2998 it was 1.72 µM (inactive). The GI50 in the test with Hs-578T was 0.252 µM (active); with LOX IMVI, 0.839 µM (active); in the test on M19-MEL, 12.8 µM (inactive); in the test on MCF7, 0.463 µM (active); in the test with MDA-MB-435, 0.18 µM (active); with NCI/ADR-RES it was > 100 µM (inactive). The GI50 is 15.5 µM (inactive) in the test on SNB-78; 1.06 µM (active) in the test on SR; 0.448 µM (active) in the test on SW-620; > 100 µM (inactive) in the test with T47D; 0.684 µM (active) in the test on UACC-257; 2.07 µM (inactive) in the test with XF498.

`C[C@]12CCC(=O)C(O)=C1CC[C@@H]1[C@@H]2CC[C@]2(C)C(=O)CC[C@@H]12` [FORMESTANE]: the GI50 is > 100 µM (inactive) in the test on 786-0; > 100 µM (inactive) in the test on BT-549; > 100 µM (inactive) with COLO 205; > 100 µM (inactive) in the test with DMS-114; > 88.9 µM (inactive) in the test on EKVX; > 100 µM (inactive) with HCC 2998. The GI50 in the test on Hs-578T, with LOX IMVI, in the test on MCF7, with MDA-MB-435, in the test on MDA-N and in the test with NCI/ADR-RES was > 100 µM (inactive) throughout. Besides, the GI50 with SNB-78 was > 100 µM (inactive); with SR, > 100 µM (inactive); in the test with SW-620 it was > 100 µM (inactive); in the test on T47D, > 100 µM (inactive); in the test on UACC-257, > 100 µM (inactive); in the test on XF498, 88.1 µM (inactive).
